In patent US11766430B2, “Methods of using a phenoxypropylamine compound to treat pain” (Minerva Neurosciences, Inc., priority 2018, dated 2023):
Several values for one entry are separate records, joined by “and”; a condition that tells them apart may be missing. Equal entries are not always repeated.

Test system: carrageenan-induced mechanical hyperalgesia in rats
Experiment: Carrageenan-induced mechanical hyperalgesia, paw pressure test, MIN-117 1-10 mg/kg (Example 4)
Format: in vivo, male Sprague-Dawley rats
Conditions: Carrageenan 2%; for Nociceptive threshold, injured paw (mean ± s.e.m.) / % activity, injured paw: 3 mg/kg; for paw withdrawal threshold, control paw, Mean: n = 10
Procedure: In this model, inflammation is induced by intraplantar injection of carrageenan (2%) into the right hindpaw of the rat. Three hours later, reaction thresholds are measured using the paw pressure test. Pressure is gradually applied to both hind paws (inflamed and control) of the rat, and reaction thresholds are determined as the pressure (g) required to elicit paw withdrawal or vocalization. Morphine (3 mg/kg, s.c.), used as positive control.
The experiments in this study used fifty (50) male Sprague-Dawley rats (SPF status, Janvier, France), each weighing 183-244 g during the experimental phase. The rats were housed in a temperature (20-24° C.) and relative humidity (45%-65%) controlled room and acclimated to an artificial day/night cycle of 12 hours light (6.30 a.m. to 6.30 p.m.)/12 hours darkness. Rats had free access to sterilized tap water and were fed ad libitum with pelleted complete diet (reference A04, S.A.F.E.). Animals were housed 4 per cage (cages Type E) and were acclimated for a period of at least 5 days before any testing. Each rat was identified by tail markings. Based on the SPF status of the animal facilities, there is no reason to expect that contaminants were present in the food, water or bedding, at levels capable of interfering with the results of the tests.
Static mechanical hyperalgesia was assessed using the Paw Pressure test or Randall & Selitto test (Randall, L. O. and Selitto, J. J., A method for measurement of analgesic activity on inflamed tissue, Arch Int Pharmacodyn, 1957(111): 409-419). This test requires the application of an increasing pressure on the hind paws between a flat surface and a blunt pointer. This test is usually used with animals with one hind paw inflamed by an injection or injured by ligation, and one normal hind paw, to evaluate drugs for analgesic action. The apparatus exerts a steadily increasing force and reaction threshold is determined as the pressure (g) required to elicit paw withdrawal and/or vocalization. In the experiment, animals were gently handled by the experimenter and static mechanical hyperalgesia was assessed. Each reaction threshold measurement was done for both hind paws.
Five (5) experimental groups of 10 rats each were used. Each group was first injected with 100 μL of a 2% carrageenan suspension was injected into the plantar aspect of the right hindpaw. Three hours after carrageenan injection, nociceptive reaction thresholds (vocalization or paw withdrawal) were measured in order to select animals meeting the inclusion criteria: 20 g<paw withdrawal threshold<240 g (baseline). The 5 groups were then administered the following: • Group 1: vehicle (0.5% HPMC), i.p., solution (negative control); • Group 2: MIN-117 (1 mg/kg, i.p.) in 0.5% HPMC, suspension; • Group 3: MIN-117 (3 mg/kg, i.p.) in 0.5% HPMC, suspension; • Group 4: MIN-117 (10 mg/kg, i.p.) in 0.5% HPMC, suspension; and • Group 5: morphine (3 mg/kg, s.c.) in 0.9% NaCl, solution (positive control).
Thirty minutes after morphine injection, the antihyperalgesic effect of morphine was evaluated using the paw pressure test. For vehicle and MIN-117 administration, the antihyperalgesic effect was evaluated after 120 min. using the paw pressure test.
Vehicle and MIN-117 were intraperitoneally administered at 10 mL/kg. Morphine was subcutaneously administered at 5 mL/kg. Dosing and testing were performed in a random order by a blinded experimenter except for the morphine-treated group. Doses were expressed in terms of free active substance.
Results were expressed as: • The paw withdrawal threshold (mean±s.e.m.) in grams of contact pressure for each group, calculated from individual paw withdrawal thresholds • The percentage of variation of the paw withdrawal threshold calculated from the mean value of the vehicle-treated group • The percentage of activity of activity of the compound on carrageenan-induced mechanical hyperalgesia, calculated as follows: […]

[1] = 3 mg/kg s.c., T0 (before dosing)
[2] = 3 mg/kg s.c., T0 + 30 min, listed as morphine
[3] = Morphine 3 mg/kg s.c. group, Baseline (before dosing)
[4] = Morphine 3 mg/kg s.c., 30 min after treatment

CN1CC[C@]23c4c5ccc(O)c4O[C@H]2[C@@H](O)C=C[C@H]3[C@H]1C5 [Morphine, reference compound]
Effect on nociceptive threshold vs baseline pre-treatment (in words) (3 mg/kg s.c., 30 min. after the injection): marked and significant increase
Nociceptive threshold, control paw (mean ± s.e.m.) (3 mg/kg s.c., T0 (3 h after carrageenan, before dosing)): 376 ± 14.5 g
% variation vs control paw, injured paw [1]: −47%
% variation vs vehicle-treated group, injured paw [1]: 0%
Nociceptive threshold, injured paw (mean ± s.e.m.) [1]: 200 ± 6.7 g
Nociceptive threshold, injured paw (mean ± s.e.m.) (3 mg/kg s.c., T0 (before dosing), listed as morphine): 200 ± 6.7 g
% variation vs control paw, injured paw (3 mg/kg s.c., T0 + 30 min): −17%
% variation vs pre-drug threshold, injured paw (3 mg/kg s.c., T0 + 30 min): 162%
% activity, injured paw (3 mg/kg s.c., T0 + 30 min): 190%
Nociceptive threshold, injured paw (mean ± s.e.m.) (3 mg/kg s.c., T0 + 30 min): 524 ± 35.6 g
% activity, injured paw [2]: +190%
Nociceptive threshold, injured paw (mean ± s.e.m.) [2]: 524 ± 35.6 g
% variation vs control paw, injured paw [3]: −47%
% variation vs vehicle treated group, injured paw [3]: 0%
paw withdrawal threshold, control paw, Mean (Morphine 3 mg/kg s.c. group, Baseline (before dosing, 3 h after carrageenan)): 376 g
% activity on carrageenan-induced mechanical hyperalgesia, injured paw (Morphine 3 mg/kg s.c., 30 min): 190%
% variation vs control paw, injured paw (Morphine 3 mg/kg s.c., 30 min): −17%
% variation vs pre-drug threshold, injured paw (Morphine 3 mg/kg s.c., 30 min): 162%
paw withdrawal threshold, control paw, individual rats [4]: 680 g (4×) and 640 g (2×) and 600 g and 620 g and 560 g and 520 g
paw withdrawal threshold, injured paw, individual rats [4]: 680 g and 600 g (2×) and 500 g and 640 g and 320 g and 400 g and 540 g and 440 g and 520 g
paw withdrawal threshold, control paw, Mean [4]: 630 g
